In ChEMBL document CHEMBL1128810, “Glutamine-derived aldehydes for the inhibition of human rhinovirus 3C protease” (Bioorg Med Chem Lett, 1995):
Where a SMILES comes first, the peptide text is derived from it. The star is where a group is joined. Boc = CC(C)(C)OC(=O)*

Experiments:
[1] = biological target: T1, Human rhinovirus A protease (Human rhinovirus sp., UniProt Q4U254); experiment: Inhibitory activity against human rhinovirus-14 Protease 3C; set-up: species or system rhinovirus B14
T1 sequence (Q4U254 whole entry): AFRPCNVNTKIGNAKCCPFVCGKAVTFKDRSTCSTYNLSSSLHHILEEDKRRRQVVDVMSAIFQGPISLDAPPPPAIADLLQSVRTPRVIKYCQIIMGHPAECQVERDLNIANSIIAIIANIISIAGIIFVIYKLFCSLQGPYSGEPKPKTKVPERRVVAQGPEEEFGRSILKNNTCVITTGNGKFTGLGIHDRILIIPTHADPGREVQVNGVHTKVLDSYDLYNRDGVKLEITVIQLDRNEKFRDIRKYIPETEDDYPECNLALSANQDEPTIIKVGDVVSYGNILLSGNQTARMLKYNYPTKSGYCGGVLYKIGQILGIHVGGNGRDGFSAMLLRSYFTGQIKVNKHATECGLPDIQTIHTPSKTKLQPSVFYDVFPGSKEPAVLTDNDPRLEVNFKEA

Nucleic Acid [2] = experiment: In vitro ability to selectively inhibit the translation of rhinoviral RNA in translation assay; format: functional; conditions: Human rhinovirus sp.
Nucleic Acid [3] = experiment: In vitro ability to selectively inhibit the translation of rhinoviral RNA in translation assay; Toxic; format: functional; conditions: Human rhinovirus sp.
rhinovirus B14 = experiment: Inhibitory activity against human rhinovirus-14 in cell culture; format: functional; conditions: Rhinovirus B; read-out: ED50 (the source's name)

| SMILES | IC50 [1] | Activity (Nucleic Acid [2]) | Activity (Nucleic Acid [3]) | EC50 (rhinovirus B14) |
| --- | --- | --- | --- | --- |
| CC(C)C[C@H](NC(=O)[C@@H](NC(=O)OC(C)(C)C)C(C)C)C(=O)N[C@@H](Cc1ccccc1)C(=O)NCC=O (Boc-VLFG-aldehyde) | 10 µM | 180 µM | – | – |
| CC(=O)N[C@@H](CC(C)C)C(=O)N[C@@H](Cc1ccccc1)C(=O)N[C@H](C=O)CCC(N)=O (Ac-Leu-Phe-Gln-aldehyde) | 2.7 µM | 170 µM | – | – |
| CC(C)C[C@H](N)C(=O)N[C@@H](Cc1ccccc1)C(=O)N[C@H](C=O)CCC(N)=O (H-Leu-Phe-Gln-aldehyde) | 1 µM | – | Toxic | – |
| CC(C)C[C@H](NC(=O)OC(C)(C)C)C(=O)N[C@@H](Cc1ccccc1)C(=O)N[C@H](C=O)CCC(N)=O (Boc-Leu-Phe-Gln-aldehyde) | > 80 µM | – | – | – |
| CC(C)C[C@H](NC(=O)[C@@H](NC(=O)OC(C)(C)C)C(C)C)C(=O)N[C@@H](Cc1ccccc1)C(=O)N[C@H](C=O)CCC(N)=O (Boc-VLFQ-aldehyde) | 0.6 µM | 10 µM | – | 500 µM |
| CC(=O)NCC(=O)N[C@@H](Cc1ccccc1)C(=O)N[C@H](C=O)CCC(N)=O (Ac-Gly-Phe-Gln-aldehyde) | 16 µM | – | – | – |
| CC(C)CC(=O)N[C@@H](Cc1ccccc1)C(=O)N[C@H](C=O)CCC(N)=O | > 80 µM | > 200 µM | – | – |
| CC(C)(C)OC(=O)N[C@@H](Cc1ccccc1)C(=O)N[C@H](C=O)CCC(N)=O | > 80 µM | – | – | – |
